Reference: patent US8715638B2, “Ethenyl-substituted pyridine and pyrimidine derivatives and their use in treating viral infections” (Merck Sharp & Dohme Corp., priority 2008, dated 2014)

What follows are compounds tested on HCV replicon cells (assay: Cell-based HCV Replicon Assay). Details: Hepatitis C virus, 72 h; HCV replicon RNA level by real time PCR (Taqman), cells harvested on day 3; EC90 = concentration to achieve ΔCT=3.2 over baseline.
Description: Assays Cell-based HCV Replicon Assay
To measure cell-based anti-HCV activity of the compounds of the present invention, replicon cells were seeded at 5000 cells/well in 96-well collagen I-coated Nunc plates in the presence of the compound of the invention. […] The final concentration of DMSO was 0.5%, fetal bovine serum was 10%, in the assay media. […] The replicon RNA level was measured using real time PCR (Taqman assay). The amplicon was located in 5B. […] GAPDH RNA was used as endogenous control and was amplified in the same reaction as NS5B (multiplex PCR) using primers and VIC-labeled probe recommended by the manufacturer (PE Applied Biosystem). The real-time RT-PCR reactions were run on ABI PRISM 7900HT Sequence Detection System using the following program: 48° C. for 30 min, 95° C. for 10 min, 40 cycles of 95° C. for 15 sec, 60° C. for 1 min. The ΔCT values (CT5B-CTGAPDH) were plotted against the concentration of test compound and fitted to the sigmoid dose-response model using GraphPad PRISM software. EC50 was defined as the concentration of inhibitor necessary to achieve ΔCT=1 over the projected baseline; EC90 the concentration necessary to achieve ΔCT=3.2 over the baseline. Alternatively, to quantitate the absolute amount of replicon RNA, a standard curve was established by including serially diluted T7 transcripts of replicon RNA in the Taqman assay. All Taqman reagents were from PE Applied Biosystems. Such an assay procedure was described in detail in e.g. Malcolm et al., Antimicrobial Agents and Chemotherapy 50: 1013-1020 (2006).

Row | SMILES | EC90 [µM]
1 | Nc1nc(Cl)c(/C=C/c2cccc(F)c2F)c(N[C@@H]2C[C@H](CO)[C@@H](O)[C@H]2O)n1 [compound 9] | ≤ 5
2 | Nc1nc(Cl)c(/C=C/c2cccc(Oc3ccccc3)c2)c(N[C@@H]2C[C@H](CO)[C@@H](O)[C@H]2O)n1 [compound 10] | ≤ 5
3 | Nc1nc(Cl)c(/C=C/c2cc(F)cc(F)c2)c(N[C@@H]2C[C@H](CO)[C@@H](O)[C@H]2O)n1 [compound 4] | ≤ 5
4 | Cc1ccccc1/C=C/c1c(Cl)nc(N)nc1N[C@@H]1C[C@H](CO)[C@@H](O)[C@H]1O [compound 13] | > 5
5 | Nc1nc(Cl)c(/C=C/c2ccccc2F)c(N[C@@H]2C[C@H](CO)[C@@H](O)C2)n1 [compound 15] | > 5
6 | CSc1nc(N)nc(N[C@@H]2C[C@H](CO)[C@@H](O)[C@H]2O)c1/C=C/c1ccccc1 [compound 16] | > 5
7 | Nc1nc(Cl)c(/C=C/c2ccc(F)c(F)c2)c(N[C@@H]2C[C@H](CO)[C@@H](O)[C@H]2O)n1 [compound 6] | ≤ 5
8 | Nc1nc(Cl)c(/C=C/c2ccccc2Cl)c(N[C@H]2C=C[C@@H](CO)C2)n1 [compound 17] | > 5
